Here are results for four compounds from publication PMC5909177 (Bioconjugate Chemistry, 2018).

Assay [1] concerns the target Gal-3. Conditions: for Gal-3; cited from earlier work.
In a further assay the target is Gal-1. Conditions: for Gal-1; cited from earlier work.
The target of assay [2] is Gal-3 (Homo sapiens, UniProt P17931). Briefly: competitive inhibition of Gal-3 binding to immobilized asialofetuin. Conditions: negative control.
Chain of Gal-3 (Homo sapiens, UniProt P17931) (P17931 whole entry): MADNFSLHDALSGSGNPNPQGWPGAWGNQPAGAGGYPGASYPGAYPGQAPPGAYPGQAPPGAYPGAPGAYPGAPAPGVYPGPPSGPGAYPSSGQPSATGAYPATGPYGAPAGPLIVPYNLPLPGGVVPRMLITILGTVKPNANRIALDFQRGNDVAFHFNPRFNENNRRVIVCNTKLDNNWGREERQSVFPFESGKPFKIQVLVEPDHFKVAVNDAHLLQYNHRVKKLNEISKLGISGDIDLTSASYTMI

In the case of `OC[C@H]1O[C@@H](S[C@@H]2O[C@H](CO)[C@H](O)[C@H](O)[C@H]2O)[C@H](O)[C@@H](O)[C@H]1O` [TDG, thiodigalactoside], the Kd (in general, the constant that tells how readily two partners part at equilibrium) on Gal-3 [1] was 49 µM; on Gal-1, 24 µM.

Consider `CO[C@@H]1O[C@H](CO)[C@@H](O[C@@H]2O[C@H](CO)[C@H](O)[C@H](O)[C@H]2O)[C@H](O)[C@H]1NC(C)=O` [methyl β-LacNAc], for which the Kd on Gal-3 [1] was 67 µM.

On to `CO[C@@H]1O[C@H](CO)[C@@H](O[C@@H]2O[C@H](CO)[C@H](O)[C@H](O)[C@H]2O)[C@H](O)[C@H]1O` [methyl β-lactoside], for which the dissociation constant (Kd) on Gal-3 [1] is 220 µM; at Gal-1, 190 µM.

Consider bovine serum albumin [Nonmodified BSA], for which the “interference with Gal-3 binding to ASF” value with Gal-3 [2] is “not interfering with Gal-3 binding to ASF”.
